Experimental data taken from PubChem BioAssay AID644 (The Scripps Research Institute Molecular Screening Center, 2007).
Calls of active or inactive are those of the source.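 Rule for the calls: active = IC50 at or below a set limit; inactive = IC50 above that limit.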

biological target: Rho-associated protein kinase 2 (Homo sapiens) (UniProt O75116); experiment: ROCK2 kinase inhibitor potency, dose response, biochemical, Kinase-Glo luminescence, S6 peptide, 1536-well (AID 644); details: recombinant ROCK2, S6 peptide, Kinase-Glo ATP luminescence
Sequence (O75116 whole entry, looked up): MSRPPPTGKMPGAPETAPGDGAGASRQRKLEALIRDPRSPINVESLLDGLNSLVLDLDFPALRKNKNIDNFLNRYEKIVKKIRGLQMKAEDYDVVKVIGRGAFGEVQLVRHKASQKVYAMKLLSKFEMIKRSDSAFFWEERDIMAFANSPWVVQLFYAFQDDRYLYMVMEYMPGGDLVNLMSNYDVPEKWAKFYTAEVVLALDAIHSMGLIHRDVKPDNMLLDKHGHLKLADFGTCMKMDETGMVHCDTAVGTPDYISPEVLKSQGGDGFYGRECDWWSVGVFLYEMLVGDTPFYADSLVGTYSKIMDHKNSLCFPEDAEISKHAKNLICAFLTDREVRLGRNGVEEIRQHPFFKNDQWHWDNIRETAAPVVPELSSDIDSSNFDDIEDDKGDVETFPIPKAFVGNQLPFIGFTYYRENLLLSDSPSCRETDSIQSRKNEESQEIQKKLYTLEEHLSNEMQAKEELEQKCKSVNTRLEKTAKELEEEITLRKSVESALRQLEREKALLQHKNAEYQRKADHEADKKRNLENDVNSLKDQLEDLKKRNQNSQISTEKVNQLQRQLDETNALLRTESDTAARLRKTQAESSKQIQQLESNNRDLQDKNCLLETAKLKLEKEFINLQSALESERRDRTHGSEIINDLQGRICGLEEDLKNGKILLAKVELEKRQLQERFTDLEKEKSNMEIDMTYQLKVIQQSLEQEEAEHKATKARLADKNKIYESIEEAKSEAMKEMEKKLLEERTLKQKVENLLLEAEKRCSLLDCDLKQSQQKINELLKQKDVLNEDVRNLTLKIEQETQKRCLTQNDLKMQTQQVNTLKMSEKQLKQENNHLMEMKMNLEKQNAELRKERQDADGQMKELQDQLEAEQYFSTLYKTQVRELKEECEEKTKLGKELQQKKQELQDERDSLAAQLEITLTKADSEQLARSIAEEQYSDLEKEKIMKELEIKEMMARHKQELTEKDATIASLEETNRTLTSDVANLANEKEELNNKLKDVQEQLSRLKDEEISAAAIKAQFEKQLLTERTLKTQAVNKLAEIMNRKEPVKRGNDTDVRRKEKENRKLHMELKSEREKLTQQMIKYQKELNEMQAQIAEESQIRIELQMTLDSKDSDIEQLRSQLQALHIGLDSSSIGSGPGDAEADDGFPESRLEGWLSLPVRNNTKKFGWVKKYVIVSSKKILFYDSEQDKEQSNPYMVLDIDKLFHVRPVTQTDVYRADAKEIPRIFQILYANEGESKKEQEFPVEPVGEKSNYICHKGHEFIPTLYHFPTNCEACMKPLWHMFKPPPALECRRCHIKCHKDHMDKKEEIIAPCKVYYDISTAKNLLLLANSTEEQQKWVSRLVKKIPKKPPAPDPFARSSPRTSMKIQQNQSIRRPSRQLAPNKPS

Structure (SMILES) | IC50
Cc1[nH]nc2c1C(c1ccc(-c3ccccc3C#N)o1)C(C#N)=C(N)O2 (stereo not drawn) | > 19.9 µM (inactive)
CCOC(=O)C1=C(CSc2nc(-c3ccncc3)ccc2C#N)OC(N)=C(C#N)C1c1cccnc1 (stereo not drawn) | > 19.9 µM (inactive)
COC(=O)c1cccc2c1-c1ccccc1/C2=N/O | > 19.9 µM (inactive)
O/N=C/c1c[nH]c2ccccc12 | 4.81 µM
CN(C(=O)c1cccc(N2C(=O)C3CC=CCC3C2=O)c1)C1CCCCC1 (stereo not drawn) | > 59.6 µM (inactive)
CC1=NN(c2ccccc2)C(=O)C1 | > 59.6 µM (inactive)
CN1/C(=N\O)c2cccc3cccc1c23 | > 19.9 µM (inactive)
COc1cc(N=Cc2c(O)[nH]c3ccccc23)cc(OC)c1OC | inactive
